Tested on: LG0567-F671-PDC complex spheroids viability
Experiment: Anticancer human tumor LG0567-F671-PDC patient-derived lung adenocarcinoma cell line growth inhibition [RAS]
Conditions: for viability, T/C: stronger effect = lower value
Outline: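 Multi-cell-type spheroids: tumor cells plus HUVEC endothelial cells and mesenchymal stem cells. RAS-pathway inhibitors were combined with targeted agents, each dosed in half-log steps down from clinical Cmax, or from 10 microM when Cmax was unknown.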
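Also: spheroids exposed to compound for seven days before readout.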
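For IC50 in this document: luminescence signal used as a proxy for viable cells.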

## NC1c2ccccc2OC12CCN(c1cnc3c(N4CCCc5ncccc54)n[nH]c3n1)CC2 (stereo unspecified) + CCn1c(-c2cccnc2C(C)OC)c2c3cc(ccc31)N1CCOC(CC(NC(=O)C(C(C)C)N(C)C(=O)C3(F)CCN(C(=O)C#CC(C)(C)N(C)C)CC3)C(=O)N3CCCC(N3)C(=O)OCC(C)(C)C2)C1
Curve of first compound, second compound 0.000949 µM
  IC50: < 31.6 nM
Curve of first compound, second compound 0.003 µM
  IC50: < 31.6 nM
Curve of first compound, second compound 0.00949 µM
  IC50: < 31.6 nM
Curve of first compound, second compound 0.03 µM
  IC50: < 31.6 nM
Curve of first compound, second compound 0.0949 µM
  IC50: < 31.6 nM
Curve of first compound, second compound 0.3 µM
  IC50: < 31.6 nM
Second compound 0.000949 µM, first compound 0.0316 µM
  viability, T/C: 4.75%
Second compound 0.000949 µM, first compound 0.1 µM
  viability, T/C: 4.54%
Second compound 0.000949 µM, first compound 0.316 µM
  viability, T/C: 2.82%
Second compound 0.000949 µM, first compound 1 µM
  viability, T/C: 2.6%
Second compound 0.000949 µM, first compound 3.16 µM
  viability, T/C: 3.24%
Second compound 0.000949 µM, first compound 10 µM
  viability, T/C: 2.18%
Second compound 0.003 µM, first compound 0.0316 µM
  viability, T/C: 5.7%
Second compound 0.003 µM, first compound 0.1 µM
  viability, T/C: 4.2%
Second compound 0.003 µM, first compound 0.316 µM
  viability, T/C: 3.08%
Second compound 0.003 µM, first compound 1 µM
  viability, T/C: 2.79%
Second compound 0.003 µM, first compound 3.16 µM
  viability, T/C: 2.89%
Second compound 0.003 µM, first compound 10 µM
  viability, T/C: 3%
Second compound 0.00949 µM, first compound 0.0316 µM
  viability, T/C: 6.21%
Second compound 0.00949 µM, first compound 0.1 µM
  viability, T/C: 3.69%
Second compound 0.00949 µM, first compound 0.316 µM
  viability, T/C: 3.15%
Second compound 0.00949 µM, first compound 1 µM
  viability, T/C: 2.2%
Second compound 0.00949 µM, first compound 3.16 µM
  viability, T/C: 1.99%
Second compound 0.00949 µM, first compound 10 µM
  viability, T/C: 1.74%
Second compound 0.03 µM, first compound 0.0316 µM
  viability, T/C: 4.82%
Second compound 0.03 µM, first compound 0.1 µM
  viability, T/C: 4.27%
Second compound 0.03 µM, first compound 0.316 µM
  viability, T/C: 2.5%
Second compound 0.03 µM, first compound 1 µM
  viability, T/C: 1.95%
Second compound 0.03 µM, first compound 3.16 µM
  viability, T/C: 1.88%
Second compound 0.03 µM, first compound 10 µM
  viability, T/C: 2.47%
Second compound 0.0949 µM, first compound 0.0316 µM
  viability, T/C: 4.25%
Second compound 0.0949 µM, first compound 0.1 µM
  viability, T/C: 3.02%
Second compound 0.0949 µM, first compound 0.316 µM
  viability, T/C: 2.73%
Second compound 0.0949 µM, first compound 1 µM
  viability, T/C: 1.84%
Second compound 0.0949 µM, first compound 3.16 µM
  viability, T/C: 1.66%
Second compound 0.0949 µM, first compound 10 µM
  viability, T/C: 1.44%
Second compound 0.3 µM, first compound 0.0316 µM
  viability, T/C: 3.31%
Second compound 0.3 µM, first compound 0.1 µM
  viability, T/C: 2.55%
Second compound 0.3 µM, first compound 0.316 µM
  viability, T/C: 1.71%
Second compound 0.3 µM, first compound 1 µM
  viability, T/C: 1.65%
Second compound 0.3 µM, first compound 3.16 µM
  viability, T/C: 1.27%
Second compound 0.3 µM, first compound 10 µM
  viability, T/C: 2.62%

## CC(C)n1nc(-c2ccc3oc(N)nc3c2)c2c(N)ncnc21 + C#Cc1c(F)ccc2cc(O)cc(-c3ncc4c(N5CC6CCC(C5)N6)nc(OCC56CCCN5CC(F)C6)nc4c3F)c12
Curve of first compound, second compound 0.0316 µM
  IC50: 19.6 nM
Curve of first compound, second compound 0.1 µM
  IC50: 17.8 nM
Curve of first compound, second compound 0.316 µM
  IC50: 1.32 nM
Curve of first compound, second compound 1 µM
  IC50: < 0.316 nM
Curve of first compound, second compound 3.16 µM
  IC50: < 0.316 nM
Curve of first compound, second compound 10 µM
  IC50: < 0.316 nM
Second compound 0.0316 µM, first compound 0.000316 µM
  viability, T/C: 90.7%
Second compound 0.0316 µM, first compound 0.001 µM
  viability, T/C: 77.8%
Second compound 0.0316 µM, first compound 0.00316 µM
  viability, T/C: 83.4%
Second compound 0.0316 µM, first compound 0.01 µM
  viability, T/C: 58.3%
Second compound 0.0316 µM, first compound 0.0316 µM
  viability, T/C: 44.3%
Second compound 0.0316 µM, first compound 0.1 µM
  viability, T/C: 34.1%
Second compound 0.1 µM, first compound 0.000316 µM
  viability, T/C: 73.3%
Second compound 0.1 µM, first compound 0.001 µM
  viability, T/C: 73.5%
Second compound 0.1 µM, first compound 0.00316 µM
  viability, T/C: 61.1%
Second compound 0.1 µM, first compound 0.01 µM
  viability, T/C: 58.2%
Second compound 0.1 µM, first compound 0.0316 µM
  viability, T/C: 43.2%
Second compound 0.1 µM, first compound 0.1 µM
  viability, T/C: 33%
Second compound 0.316 µM, first compound 0.000316 µM
  viability, T/C: 52.9%
Second compound 0.316 µM, first compound 0.001 µM
  viability, T/C: 48.9%
Second compound 0.316 µM, first compound 0.00316 µM
  viability, T/C: 49.1%
Second compound 0.316 µM, first compound 0.01 µM
  viability, T/C: 40.8%
Second compound 0.316 µM, first compound 0.0316 µM
  viability, T/C: 34.2%
Second compound 0.316 µM, first compound 0.1 µM
  viability, T/C: 28.5%
Second compound 1 µM, first compound 0.000316 µM
  viability, T/C: 36.7%
Second compound 1 µM, first compound 0.001 µM
  viability, T/C: 36.2%
Second compound 1 µM, first compound 0.00316 µM
  viability, T/C: 30.8%
Second compound 1 µM, first compound 0.01 µM
  viability, T/C: 24.9%
Second compound 1 µM, first compound 0.0316 µM
  viability, T/C: 22.3%
Second compound 1 µM, first compound 0.1 µM
  viability, T/C: 18.5%
Second compound 3.16 µM, first compound 0.000316 µM
  viability, T/C: 21.4%
Second compound 3.16 µM, first compound 0.001 µM
  viability, T/C: 19.9%
Second compound 3.16 µM, first compound 0.00316 µM
  viability, T/C: 20.1%
Second compound 3.16 µM, first compound 0.01 µM
  viability, T/C: 15.6%
Second compound 3.16 µM, first compound 0.0316 µM
  viability, T/C: 13.6%
Second compound 3.16 µM, first compound 0.1 µM
  viability, T/C: 9.08%
Second compound 10 µM, first compound 0.000316 µM
  viability, T/C: 11.7%
Second compound 10 µM, first compound 0.001 µM
  viability, T/C: 10.7%
Second compound 10 µM, first compound 0.00316 µM
  viability, T/C: 8.74%
Second compound 10 µM, first compound 0.01 µM
  viability, T/C: 9.19%
Second compound 10 µM, first compound 0.0316 µM
  viability, T/C: 6.42%
Second compound 10 µM, first compound 0.1 µM
  viability, T/C: 5.01%

## CCn1c(-c2cccnc2C(C)OC)c2c3cc(ccc31)N1CCOC(CC(NC(=O)C(C(C)C)N(C)C(=O)C3(F)CCN(C(=O)C#CC(C)(C)N(C)C)CC3)C(=O)N3CCCC(N3)C(=O)OCC(C)(C)C2)C1 (stereo unspecified)
Compound 0.000949 µM
  viability, T/C: 15.2% [middle of 8 runs]
Compound 0.003 µM
  viability, T/C: 15% [middle of 8 runs]
Compound 0.00949 µM
  viability, T/C: 15.1% [middle of 7 runs]
Compound 0.03 µM
  viability, T/C: 13.5% [middle of 8 runs]
Compound 0.0949 µM
  viability, T/C: 12.2% [middle of 8 runs]
Compound 0.3 µM
  viability, T/C: 10.3% [middle of 8 runs]
Compound alone, run of 08/20/2024
  IC50: < 0.949 nM

Source: PubChem BioAssay AID2060889 (Molecular Pharmacology Branch, DTP, NCI, 2025)
